Columns and labels:
Townes SCD mice = experiment: Chronic dosing study (BID, 15 days) in Townes SCD mice; assay type: in vivo, mouse; details: 200 mg/kg BID for 15 days, Townes SCD mice, vs vehicle; for sVCAM1, Change (decrease): ELISA
Experimental: Following 15 days of dosing, blood samples were collected from all animals to run in the Hemeox analyzer to generate oxygen affinity curves, complete blood analysis was performed using Idexx hematology Analyzer, and cell sickling assessed as described before. Soluble Vascular Adhesion Molecule 1 levels (sVCAM1) were assessed by Enzyme linked immunosorbent assay (ELISA) from R&D systems. Results are presented below in Tables 7, 8 and 9.

Hb in human whole blood = molecular target: T1, Hb in human whole blood (Homo sapiens, UniProt P68871+P69905); experiment: Whole blood oxygen affinity assay (Hemox analyzer), human blood; details: 1 mM compound, 1 hour at 25 C, relative to DMSO
T1 construct: measured in human, dog, and mouse whole blood; from tissue; host or cells: human whole blood
Text: (§1) Whole Blood Oxygen Affinity Assay
(§2) Oxygen affinity is a marker of the ability of Hb to bind and release oxygen in solution. It can be determined in whole blood by measuring the percentage of oxygenated and deoxygenated Hb present at a given oxygen concentration. Oxygen affinity is expressed as the p50, the partial pressure of oxygen at which 50% of the Hb in solution has oxygen bound, or the p20, the partial pressure of oxygen at which 20% of the Hb in solution has oxygen bound.
(§3) To determine the effects of compounds of the invention on oxygen affinity the p50 and p20 were measured in human, dog, and mouse whole blood using a Hemeox Analyzer (TCS Scientific). The blood was spiked with a compound of the invention to a concentration of 1 mM and incubated for 1 hour at 25 C with constant rotation. A concentration of 1 mM of compound was selected to approximate 20% hemoglobin occupancy in whole blood. Controls with the same concentration of DMSO, but no compound were incubated in the same way at the same time. Following incubation, samples were immediately assayed for oxygen affinity using the Hemox analyzer. Fifty μL of blood sample was diluted into 5 mL of hemox buffer (TCS Scientific), which had been pre-incubated to 37 C. Following dilution, samples were loaded into the analysis chamber, and fully oxygenated using compressed air. Once samples had reached an pO2 of >150 torr, the measurement was initiated by switching to N2, and the percent oxyhemoglobin as a function of partial pressure was recorded. The p20 and p50 of each sample were recorded from the instrument readout. Data are reported as the percent (%) change relative to DMSO according to the following calculations: […]

[1] = molecular target: T2, purified sickle cell hemoglobin (HbS) (Homo sapiens, UniProt P68871+P69905, E7V); experiment: Binding affinity to purified HbS by Surface Plasmon Resonance (SPR); details: crosslinked biotinylated HbS, 1:1 binding model
T2 construct: HbS was obtained from the blood of homozygous S/S patients; from tissue; host or cells: red blood cells of homozygous S/S patients
How it was run: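 Patient-derived HbS, purified and crosslinked between beta subunits (Lys82-Lys82), biotinylated and captured on streptavidin sensor at 4000–5000 RU. Running buffer 100 mM potassium phosphate pH 7.5, 1 mM EDTA, 0.1 mg/mL BSA, 1% DMSO; 2 min association, ≥5 min dissociation, ≥4 concentrations; Kd from 1:1 model fit.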

Hb in dog whole blood = molecular target: T3, Hb in dog whole blood (Canis lupus familiaris, UniProt P60524+P60529); experiment: Whole blood oxygen affinity assay (Hemox analyzer), dog blood; details: 1 mM compound, 1 hour at 25 C, relative to DMSO
T3 construct: measured in human, dog, and mouse whole blood; from tissue; host or cells: dog whole blood
Text: as §1, §2
as §3, with “Fifty μL of blood sample was diluted into 5 mL of hemox buffer (TCS Scientific), which had been pre-incubated to 37 C. Following dilution, samples were loaded into the analysis chamber, and fully oxygenated using compressed air.” left out, “readout.” for “readout. Data are reported as the percent (%) change relative to DMSO according to the following calculations:”

| Reduction in p20 (%) Human (Hb in human whole blood) | Reduction in p50 (%) Human (Hb in human whole blood) | Kd [1] | Reduction in p20 (%) Dog (Hb in dog whole blood) | Reduction in p50 (%) Dog (Hb in dog whole blood) | SMILES | sVCAM1, Change (decrease) (Townes SCD mice) | Hb, Change (increase) (Townes SCD mice) | Hematocrit, Change (increase) (Townes SCD mice) | RBC sickling, Change (decrease) (Townes SCD mice) | RBCs, Change (increase) (Townes SCD mice) | Reticulocytes, Change (decrease) (Townes SCD mice) | p20, Change (decrease) (Townes SCD mice) | p50, Change (decrease) (Townes SCD mice) |
| --- | --- | --- | --- | --- | --- | --- | --- | --- | --- | --- | --- | --- | --- |
| 25 ± 9% | 14 ± 10% | 0.037 µM | – | – | C[C@H](Oc1cc2cc(F)cc(F)c2nc1N)c1cc(C(=O)O)ccc1-n1cccn1 [Example 21, 3-{(1S)-1-[(2-amino-6,8-difluoroquinolin-3-yl)oxy]ethyl}-4-(1H-pyrazol-1-yl)benzoic Acid] | 6.57 ± 3.75% decrease | 43.7 ± 9.83% increase | 29.1 ± 11.2% increase | 30.8 ± 14.5% decrease | 44.6 ± 9.04% increase | 32.7 ± 9.37% decrease | 76.1 ± 13.9% decrease | 26.2 ± 9.7% decrease |
| 24 ± 19% | 12 ± 9% | 0.034 µM | 10 ± 6% | 6 ± 6% | C[C@H](Oc1cc2cc(F)ccc2nc1N)c1nc(O)ccc1-n1cccn1 [Example 58, 6-{(1S)-1-[(2-amino-6-fluoroquinolin-3-yl)oxy]ethyl}-5-(1H-pyrazol-1-yl)pyridin-2-ol] | 9.98 ± 7.1% decrease | 42.4 ± 4.2% increase | 30.9 ± 0.7% increase | 37.8 ± 9.0% decrease | 39.2 ± 9.3% increase | 54.7 ± 2.4% decrease | 84.4 ± 2.6% decrease | 53.7 ± 21.2% decrease |
